From PubChem BioAssay (NCI)
Several values for one entry are separate records, joined by “and”; a condition that tells them apart may be missing. Identical values can stand only once.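 Five concentrations, 48 hours, 96-well plates. GI50 is the concentration that inhibits growth by half. At the TGI there is no net growth.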

What was measured:
Test in all cases: DTP human tumour cell line panel, 48 h
[1] = tested on: SNB-19 CNS
[2] = tested on: SK-MEL-28 melanoma
[3] = tested on: SF-295 CNS
[4] = tested on: OVCAR-4 ovarian
[5] = tested on: BT-549 breast
[6] = tested on: KM12 colon
[7] = tested on: LOX IMVI melanoma
[8] = tested on: K-562 leukemia
[9] = tested on: SR leukemia
[10] = tested on: RPMI-8226 leukemia

SMILES | GI50 [1] | TGI [1] | GI50 [2] | TGI [2] | GI50 [3] | TGI [3] | GI50 [4] | TGI [4] | GI50 [5] | TGI [5] | GI50 [6] | TGI [6] | GI50 [7] | TGI [7] | GI50 [8] | TGI [8] | GI50 [9] | TGI [9] | GI50 [10] | TGI [10]
C=C1C(=O)O[C@H]2[C@H]1CC/C(COC(=O)/C=C\C(=O)NCc1ccc(Cn3c(=O)sn(-c4ccc(OC)cc4)c3=O)cc1)=C\CC[C@@]1(C)O[C@@H]21 | 0.879 µM | 1.78 µM | 0.825 µM | 1.55 µM | 3.84 µM | 10.1 µM | 0.706 µM | 1.39 µM | 0.562 µM | 1.29 µM | 0.884 µM | 1.81 µM | 0.36 µM | 1.09 µM | 0.603 µM | 50 µM | 0.322 µM | 11.8 µM | 0.313 µM | 2.43 µM
O=C(Nc1ncc(Cc2ccccc2)s1)c1ccc2c(c1)OCCO2 | 0.0549 µM | > 38 µM | 0.0823 µM | > 100 µM | 0.0304 µM | 1.49 µM | 0.561 µM | > 100 µM | 0.267 µM | > 100 µM | 0.0396 µM | 32.9 µM | 0.0546 µM | > 74.3 µM | 0.0383 µM | > 100 µM | 0.0487 µM | > 100 µM | 0.0587 µM | > 100 µM
CC(C)c1ccc2c(N=Nc3ccc(S(N)(=O)=O)cc3)c(O)[nH]c2c1 | > 14.5 µM | > 25 µM | > 25 µM | > 25 µM | 11.2 µM | > 25 µM | > 25 µM | > 25 µM | 8.76 µM | > 16.4 µM | 1.24 µM | > 25 µM | 9.01 µM | > 25 µM | > 25 µM | > 25 µM | > 16.2 µM | > 25 µM | > 25 µM | > 25 µM
CCc1ccc(CCC(=O)Nc2ncc(Cc3cc(Cl)ccc3Cl)s2)o1 | 1.87 µM | 12.4 µM | 2.75 µM | > 50 µM | 1.25 µM | 7.17 µM | 1.78 µM | 12.6 µM | > 50 µM | > 50 µM | 1.12 µM | > 50 µM | 2.04 µM | > 50 µM | 0.242 µM | > 50 µM | 0.22 µM | 7.92 µM | 1.21 µM | 6.92 µM
CN(C)c1ccc(/C=C(\C#N)c2cc3ccccc3n2C)cc1 | 0.357 µM | > 100 µM | 1.07 µM | > 100 µM | 0.0787 µM | – | 0.701 µM | > 100 µM | 0.618 µM | > 100 µM | 0.211 µM | > 100 µM | 0.425 µM | > 100 µM | 0.0407 µM | > 100 µM | 0.0396 µM | – | 0.351 µM | > 100 µM
CC1(C)CC(=O)C2=C(C1)NC(SSC1=C(C#N)C(c3ccc(Br)cc3)C3=C(CC(C)(C)CC3=O)N1)=C(C#N)C2c1ccc(Br)cc1 (configuration not stated) | > 150 µg/mL | > 100 µM and 150 µg/mL | 48.4 µg/mL | > 100 µM and 131 µg/mL | > 150 µg/mL | > 100 µM and 150 µg/mL | 34.4 µg/mL | > 100 µM and 84.8 µg/mL | 28.1 µg/mL | > 100 µM and 52 µg/mL | > 150 µg/mL | > 100 µM and 150 µg/mL | 22.9 µg/mL | > 100 µM and 46.6 µg/mL | 30.8 µg/mL | > 100 µM and 76.4 µg/mL | 22.8 µg/mL | > 100 µM and 66.2 µg/mL | 30.6 µg/mL | > 100 µM and 79.3 µg/mL
COc1ccc(-c2cc(-c3ccc(O)cc3)nc3nc(=S)[nH]c(N)c23)cc1 | 26.7 µM | > 100 µM | 66.8 µM | > 100 µM | 20 µM | 61.6 µM | 25.3 µM | > 100 µM | 12.4 µM | 32.7 µM | 16.9 µM | 41.3 µM | 12 µM | 30.3 µM | 16.9 µM | > 100 µM | 6.94 µM | > 100 µM | 10.6 µM | 25.7 µM
CC(=O)Oc1ccc2ccc(=O)oc2c1OC(C)=O | – | > 100 µM | – | > 100 µM | – | > 100 µM | – | > 100 µM | – | > 100 µM | – | > 100 µM | – | > 100 µM | – | > 100 µM | – | > 100 µM | – | > 100 µM
CCCn1cc(C2=C(c3cn(C)c4ccccc34)C(=O)NC2=O)c2ccccc21 | 5.58 µM | > 25 µM | 2.09 µM | 8.69 µM | 0.715 µM | 3.15 µM | 3.46 µM | 14.2 µM | 1.36 µM | 5.95 µM | 1.14 µM | 7.92 µM | 2.41 µM | 11.2 µM | 0.392 µM | > 25 µM | 0.352 µM | 9.99 µM | 1.95 µM | 11.6 µM
CN(CCCCCl)P(=O)(OCc1ccc([N+](=O)[O-])o1)C(F)(F)c1ccc(CC(=O)N[C@@H](CC(=O)O)C(=O)N[C@@H](Cc2ccc(C(F)(F)P(=O)(OCc3ccc([N+](=O)[O-])o3)N(C)CCCCCl)cc2)C(N)=O)cc1 (some centres not stated) | 54.9 µM | > 100 µM | 42.4 µM | > 100 µM | > 100 µM | > 100 µM | 39.1 µM | > 100 µM | 18.8 µM | 44.4 µM | 43 µM | > 100 µM | 28.2 µM | > 100 µM | 22.4 µM | 55.7 µM | 22.9 µM | 49.9 µM | 25.5 µM | 71.9 µM
O=C(CSc1nc2ccc([N+](=O)[O-])cc2[nH]1)Nc1cccc(Cl)c1 | 2.92 µM | 15.9 µM | 2.68 µM | 13.1 µM | 2.07 µM | 6.8 µM | 2.13 µM | 22.3 µM | 2.72 µM | 10.8 µM | 3.1 µM | 13.8 µM | 3.05 µM | 13 µM | 2.74 µM | > 100 µM | 3.34 µM | > 45.7 µM | 1.66 µM | > 27.8 µM
COC(=O)C(/C(=N/N)C(=O)Nc1ccc(C)c(C)c1)c1nc2ccc(Cl)cc2[nH]c1=O (configuration not stated) | – | – | – | > 100 µM | – | > 100 µM | – | > 100 µM | – | > 100 µM | – | > 100 µM | – | > 100 µM | – | > 100 µM | – | > 100 µM | – | > 100 µM
